22 compounds from patent US20230279025A1, “KRAS G12D INHIBITORS” (Mirati Therapeutics, Inc., priority 2020, published 2023) can be followed below.

Structures are written as SMILES. Bounds are passed on as bounds.

In test [1] the target is T1, KRas G12D (Homo sapiens (Human), UniProt P01116, G12D). Briefly: KRas G12D Binding Assay (TR-FRET displacement of Cy5 labelled tracer). Particulars: GDP-loaded KRAS G12D (amino acids 1:169), 60 minute incubation at 22° C. The protocol:
After a 60 minute incubation at 22° C., the reaction was measured using a PerkinElmer EnVision multimode plate reader via TR-FRET dual wavelength detection, and the percent of control (POC) calculated using a ratiometric emission factor. […] The POC values were fit to a 4-parameter logistic curve and the IC50 value was determined as the concentration where the curve crosses 50 POC.
ND stands for “not determined.”
On the technique in general: Time-resolved FRET reads energy transfer from a long-lived donor to a nearby acceptor.
Target sequence in this assay (P01116 other isoform, or with tags, fused parts or gaps G12D): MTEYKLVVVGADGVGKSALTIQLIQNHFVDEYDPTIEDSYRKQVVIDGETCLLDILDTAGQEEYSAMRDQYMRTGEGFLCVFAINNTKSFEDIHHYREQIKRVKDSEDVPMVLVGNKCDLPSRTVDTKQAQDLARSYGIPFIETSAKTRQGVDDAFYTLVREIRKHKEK

Test [2] concerns the target T1, KRas G12D. Briefly: KRas G12D Surface Plasmon Resonance (SPR) Binding Assay. Conditions: Biacore T200, immobilized biotinylated KRAS protein, 1:1 binding model. A general note: In SPR one partner is held on a chip, and binding of the other changes the refractive index at the surface.
Target sequence in this assay (P01116-2 other isoform, or with tags, fused parts or gaps G12D): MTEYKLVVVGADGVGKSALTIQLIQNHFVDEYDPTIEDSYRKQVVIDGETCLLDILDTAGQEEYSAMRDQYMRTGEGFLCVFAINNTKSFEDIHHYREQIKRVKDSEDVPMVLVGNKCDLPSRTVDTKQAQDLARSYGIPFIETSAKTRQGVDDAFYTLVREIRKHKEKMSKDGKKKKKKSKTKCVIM

By IC50 is commonly meant the point on the concentration scale where inhibition reaches its midpoint. Lower therefore signals greater potency. Broadly, the Kd is a measure of binding affinity in units of concentration. Read a high Kd as weaker binding. Regarding `Cn1ccnc1COc1nc(N2C[C@H]3CC[C@@H](C2)N3)c2cnc(-c3cc(O)cc4ccccc34)c(F)c2n1` [Example 104, 4-(4-((1R,5S)-3,8-diazabicyclo[3.2.1]octan-3-yl)-8-fluoro-2-((1-methyl-1H-imidazol-2-yl)methoxy)pyrido[4,3-d]pyrimidin-7-yl)naphthalen-2-ol], the IC50 in test [1] was 1.68 µM. Also, binding in test [2] was characterised by a dissociation constant (Kd) of 0.362 µM.
Take `Oc1cc(-c2ncc3c(N4C[C@H]5CC[C@@H](C4)N5)nc(N4CC5(CCOCC5)C4)nc3c2F)c2ccccc2c1` [Example 74, 4-(4-((1R,5S)-3,8-diazabicyclo[3.2.1]octan-3-yl)-8-fluoro-2-(7-oxa-2-azaspiro[3.5]nonan-2-yl)pyrido[4,3-d]pyrimidin-7-yl)naphthalen-2-ol]: the IC50 in test [1] turned out to be 0.188 µM. Moreover, binding in test [2] was characterised by a dissociation constant (Kd) of 0.141 µM.
`OCC(O)CCOc1nc(N2C[C@H]3CC[C@@H](C2)N3)c2cnc(-c3cccc4cccc(Cl)c34)c(F)c2n1` (stereo partly drawn) [Example 57, 4-((4-((1R,5S)-3,8-diazabicyclo[3.2.1]octan-3-yl)-7-(8-chloronaphthalen-1-yl)-8-fluoropyrido[4,3-d]pyrimidin-2-yl)oxy)butane-1,2-diol] registered an IC50 in test [1] of 7.29 µM. For the same compound, the Kd in test [2] was greater than 1000 µM.
The corresponding values for `Cn1ccc(COc2nc(N3C[C@H]4CC[C@@H](C3)N4)c3cnc(-c4cc(O)cc5ccccc45)c(F)c3n2)n1` [Example 8, 4-(4-((1R,5S)-3,8-diazabicyclo[3.2.1]octan-3-yl)-8-fluoro-2-((1-methyl-1H-pyrazol-3-yl)methoxy)pyrido[4,3-d]pyrimidin-7-yl)naphthalen-2-ol] are 1.52 µM and 2.14 µM.
The corresponding values for `CN1CCC[C@H]1COc1nc(N2C[C@H]3CC[C@@H](C2)N3)c2cnc(-c3cccc4cccc(CCC#N)c34)c(F)c2n1` [Example 117, 3-(8-(4-((1R,5S)-3,8-diazabicyclo[3.2.1]octan-3-yl)-8-fluoro-2-(((S)-1-methylpyrrolidin-2-yl)methoxy)pyrido[4,3-d]pyrimidin-7-yl)naphthalen-1-yl)propanenitrile bis(2,2,2-trifluoroacetate)] are 0.732 µM and 1 µM.
In turn, `CN1CCC[C@H]1COc1nc(N2C[C@H]3CC[C@@H](C2)N3)c2cnc(-c3cccc4ccc(F)cc34)c(F)c2n1` [Example 19, 4-((1R,5S)-3,8-diazabicyclo[3.2.1]octan-3-yl)-8-fluoro-7-(7-fluoronaphthalen-1-yl)-2-(((S)-1-methylpyrrolidin-2-yl)methoxy)pyrido[4,3-d]pyrimidine] came in with an IC50 in test [1] of 0.122 µM. In test [2], this compound gave a Kd of 0.665 µM.
In turn, `Oc1cc(-c2ncc3c(N4C[C@H]5CC[C@@H](C4)N5)nc(OC[C@@H]4CC5CCN4C5)nc3c2F)c2ccccc2c1` [Example 40, 4-(2-(((2S)-1-azabicyclo[2.2.1]heptan-2-yl)methoxy)-4-((1R,5S)-3,8-diazabicyclo[3.2.1]octan-3-yl)-8-fluoropyrido[4,3-d]pyrimidin-7-yl)naphthalen-2-ol] came in with an IC50 in test [1] of 0.004 µM. In test [2], this compound registered a Kd of 0.0017 µM.
In the case of `Oc1cc(-c2ncc3c(N4C[C@H]5CC[C@@H](C4)N5)nc(OCCc4cccnc4)nc3c2F)c2ccccc2c1` [Example 106, 4-(4-((1R,5S)-3,8-diazabicyclo[3.2.1]octan-3-yl)-8-fluoro-2-(2-(pyridin-3-yl)ethoxy)pyrido[4,3-d]pyrimidin-7-yl)naphthalen-2-ol], the IC50 in test [1] turned out to be 0.156 µM. In test [2], this compound yielded a Kd of 0.0535 µM.
Take `COCCCN1CCC(Oc2nc(N3C[C@H]4CC[C@@H](C3)N4)c3cnc(-c4cc(O)cc5ccccc45)c(F)c3n2)CC1` [Example 41, 4-(4-((1R,5S)-3,8-diazabicyclo[3.2.1]octan-3-yl)-8-fluoro-2-((1-(3-methoxypropyl)piperidin-4-yl)oxy)pyrido[4,3-d]pyrimidin-7-yl)naphthalen-2-ol]: the IC50 in test [1] was 0.0767 µM. The Kd in test [2] came out at 0.181 µM.
As for `Fc1c(-c2cccc3cccc(Cl)c23)ncc2c(N3C[C@H]4CC[C@@H](C3)N4)nc(OC3CCc4cn[nH]c4C3)nc12` (stereo partly drawn) [Example 143, 4-((1R,5S)-3,8-diazabicyclo[3.2.1]octan-3-yl)-7-(8-chloronaphthalen-1-yl)-8-fluoro-2-((4,5,6,7-tetrahydro-1H-indazol-6-yl)oxy)pyrido[4,3-d]pyrimidine], the 50% inhibitory concentration (IC50) in test [1] was determined as 4.56 µM. Besides, in test [2], the Kd stood at 14.9 µM.
In the same order, the values of `CC(C)n1ccnc1CCOc1nc(N2C[C@H]3CC[C@@H](C2)N3)c2cnc(-c3cc(O)cc4ccccc34)c(F)c2n1` [Example 91, 4-(4-((1R,5S)-3,8-diazabicyclo[3.2.1]octan-3-yl)-8-fluoro-2-(2-(1-isopropyl-1H-imidazol-2-yl)ethoxy)pyrido[4,3-d]pyrimidin-7-yl)naphthalen-2-ol] are 0.0327 µM and 0.0259 µM.
For the compound `CN1CCC[C@H]1COc1nc(N2C[C@H]3CC[C@@H](C2)N3)c2cnc(-c3cccc4c3C3(CC4)CC3)c(F)c2n1` [Example 162, 4-((1R,5S)-3,8-diazabicyclo[3.2.1]octan-3-yl)-7-(2′,3′-dihydrospiro[cyclopropane-1,1′-inden]-7′-yl)-8-fluoro-2-(((S)-1-methylpyrrolidin-2-yl)methoxy)pyrido[4,3-d]pyrimidine bis(2,2,2-trifluoroacetate)], in test [1], the IC50 came to 0.677 µM. The same compound displayed a dissociation constant Kd in test [2] of 0.555 µM.
`[O-][S+]1CCC(Oc2nc(N3C[C@H]4CC[C@@H](C3)N4)c3cnc(-c4cc(O)cc5ccccc45)c(F)c3n2)CC1` (stereo partly drawn) [Example 82, 4-((4-((1R,5S)-3,8-diazabicyclo[3.2.1]octan-3-yl)-8-fluoro-7-(3-hydroxynaphthalen-1-yl)pyrido[4,3-d]pyrimidin-2-yl)oxy)tetrahydro-2H-thiopyran 1-oxide]: the IC50 in test [1] is 0.227 µM. In test [2], this compound gave a Kd of 0.215 µM.
The compound `Fc1c(-c2cccc3cccc(Cl)c23)ncc2c(N3C[C@H]4CC[C@@H](C3)N4)nc(OCCc3cn4ccccc4n3)nc12` [Example 92, 4-((1R,5S)-3,8-diazabicyclo[3.2.1]octan-3-yl)-7-(8-chloronaphthalen-1-yl)-8-fluoro-2-(2-(imidazo[1,2-a]pyridin-2-yl)ethoxy)pyrido[4,3-d]pyrimidine] yielded an IC50 in test [1] of 1.35 µM. Also, binding in test [2] was characterised by a dissociation constant (Kd) of 2.3 µM.
In test [1], `CN1CCC[C@H]1COc1nc(N2C[C@H]3CC[C@@H](C2)N3)c2cnc(-c3cccc4cccc(Cl)c34)c(F)c2n1` [Example 132, 4-((1R,5S)-3,8-diazabicyclo[3.2.1]octan-3-yl)-7-(8-chloronaphthalen-1-yl)-8-fluoro-2-(((S)-1-methylpyrrolidin-2-yl)methoxy)pyrido[4,3-d]pyrimidine] displayed an IC50 of 0.0605 µM. In test [2], this compound gave a Kd of 0.0647 µM.
`CN1CCC[C@H]1COc1nc(N2C[C@H]3CC[C@@H](C2)N3)c2cnc(-c3cccc4ccc(F)c(Cl)c34)c(F)c2n1` [Example 44, 4-((1R,5S)-3,8-diazabicyclo[3.2.1]octan-3-yl)-7-(8-chloro-7-fluoronaphthalen-1-yl)-8-fluoro-2-(((S)-1-methylpyrrolidin-2-yl)methoxy)pyrido[4,3-d]pyrimidine] returned an IC50 in test [1] of 0.0337 µM. Binding in test [2] was put at a Kd of 0.0317 µM.
In the same order, the values of `OCC(CO)COc1nc(N2C[C@H]3CC[C@@H](C2)N3)c2cnc(-c3cccc4cccc(Cl)c34)c(F)c2n1` [Example 35, 2-(((4-((1R,5S)-3,8-diazabicyclo[3.2.1]octan-3-yl)-7-(8-chloronaphthalen-1-yl)-8-fluoropyrido[4,3-d]pyrimidin-2-yl)oxy)methyl)propane-1,3-diol] are 0.475 µM and 1.38 µM.
With `COCCOc1nc(N2C[C@H]3CC[C@@H](C2)N3)c2cnc(-c3cc(O)cc4ccccc34)c(F)c2n1` [Example 70, 4-(4-((1R,5S)-3,8-diazabicyclo[3.2.1]octan-3-yl)-8-fluoro-2-(2-methoxyethoxy)pyrido[4,3-d]pyrimidin-7-yl)naphthalen-2-ol], the half-maximal inhibitory concentration (IC50) in test [1] came to 0.356 µM. The same compound yielded a Kd in test [2] of 0.417 µM.
As to `Cn1nccc1COc1nc(N2C[C@H]3CC[C@@H](C2)N3)c2cnc(-c3cc(O)cc4ccccc34)c(F)c2n1` [Example 5, 4-(4-((1R,5S)-3,8-diazabicyclo[3.2.1]octan-3-yl)-8-fluoro-2-((1-methyl-1H-pyrazol-5-yl)methoxy)pyrido[4,3-d]pyrimidin-7-yl)naphthalen-2-ol], the IC50 in test [1] was 0.723 µM. This compound showed a Kd in test [2] of 0.295 µM.
Consider `CCO[C@@H]1C[C@@H](COc2nc(N3C[C@H]4CC[C@@H](C3)N4)c3cnc(-c4cccc5cccc(Cl)c45)c(F)c3n2)N(C)C1` [Example 43, 4-((1R,5S)-3,8-diazabicyclo[3.2.1]octan-3-yl)-7-(8-chloronaphthalen-1-yl)-2-(((2S,4R)-4-ethoxy-1-methylpyrrolidin-2-yl)methoxy)-8-fluoropyrido[4,3-d]pyrimidine], for which the concentration for half-maximal inhibition (IC50) in test [1] was found to be 0.0722 µM. For the same compound, binding in test [2] was characterised by a dissociation constant (Kd) of 0.188 µM.
For `Oc1cc(-c2ncc3c(N4C[C@H]5CC[C@@H](C4)N5)nc(OCCc4ccccc4F)nc3c2F)c2ccccc2c1` [Example 67, 4-(4-((1R,5S)-3,8-diazabicyclo[3.2.1]octan-3-yl)-8-fluoro-2-(2-fluorophenethoxy)pyrido[4,3-d]pyrimidin-7-yl)naphthalen-2-ol], the IC50 in test [1] was determined as 1.25 µM. The Kd in test [2] was 1.15 µM.
On to `Nc1cccc(CCOc2nc(N3C[C@H]4CC[C@@H](C3)N4)c3cnc(-c4cc(O)cc5ccccc45)c(F)c3n2)n1` [Example 139, 4-(2-(2-(6-aminopyridin-2-yl)ethoxy)-4-((1R,5S)-3,8-diazabicyclo[3.2.1]octan-3-yl)-8-fluoropyrido[4,3-d]pyrimidin-7-yl)naphthalen-2-ol], for which the IC50 in test [1] came to 0.113 µM. In addition, the Kd in test [2] was found to be 0.0254 µM.
